For series [1], the system named is human prostate cancer cell DU145 xenografts in nude mice. Briefly: In vivo efficacy assay against prostate cancer (DU145 xenograft). Particulars: Example 20 study, 21 days; for T/C(%) / tumor inhibition rate: DU145 xenograft; for body weight of nude mice during dosing: each group, once a day. The arrangement: species or system BALB/c nude mice.
In series [2] the target is T1, DYRK2 kinase (Homo sapiens, UniProt Q92630).
T1 sequence (Q92630 1-601): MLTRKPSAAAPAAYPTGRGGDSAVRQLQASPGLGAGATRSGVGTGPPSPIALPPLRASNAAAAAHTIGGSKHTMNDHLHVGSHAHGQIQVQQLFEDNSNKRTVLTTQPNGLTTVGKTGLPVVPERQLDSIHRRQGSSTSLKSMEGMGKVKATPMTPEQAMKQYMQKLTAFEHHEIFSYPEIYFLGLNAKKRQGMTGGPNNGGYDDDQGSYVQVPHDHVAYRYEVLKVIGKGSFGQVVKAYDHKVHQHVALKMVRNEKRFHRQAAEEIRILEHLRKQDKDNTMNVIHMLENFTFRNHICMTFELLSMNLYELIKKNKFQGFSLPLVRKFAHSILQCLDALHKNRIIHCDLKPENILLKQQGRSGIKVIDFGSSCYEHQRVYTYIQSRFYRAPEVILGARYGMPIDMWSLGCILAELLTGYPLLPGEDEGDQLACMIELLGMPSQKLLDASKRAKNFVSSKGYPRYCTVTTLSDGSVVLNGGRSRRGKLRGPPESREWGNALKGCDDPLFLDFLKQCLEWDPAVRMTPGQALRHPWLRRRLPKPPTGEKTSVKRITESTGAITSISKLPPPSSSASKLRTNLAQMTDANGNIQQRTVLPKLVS
The experiment in a line: DYRK2 kinase activity analysis assay (33P-ATP, DYRKtide substrate, P81 filter paper). It is filed as biochemical. Particulars: 2 hours at room temperature.

In series [3] the test system is prostate cancer DU145 cells. Briefly: Cell proliferation inhibition activity assay (CCK-8 method), DU145. It is filed as cell-based. For orientation: Tetrazolium assays rely on reduction of a dye to a coloured formazan, in cell work by metabolically active cells.
The test system of series [4] is prostate cancer 22Rv1 cells. The experiment in a line: Cell proliferation inhibition activity assay (CCK-8 method), 22Rv1. It is filed as cell-based.
Series [5] has as its system ICR mice. The experiment in a line: Acute toxicity test, single gavage, 14 days observation. In kind it is in vivo.

As usually defined, the IC50 is the concentration needed to halve the response being measured.

Counter-ions that a name gives are not always drawn. Like-named read-outs stand apart in the source and are kept apart here.

With `CNC(=O)c1ccc(N2C(=S)N(c3ccc(C#N)c(C(F)(F)F)c3)C(=O)C2(C)C)cc1F` [enzalutamide, reference compound], in series [1] (100 mg/kg once a day), the “T/C(%)” value is recorded as 42.0% and the tumor inhibition rate was found to be 57.8%. In addition, the “body weight of nude mice during dosing” value in series [1] is reported as “no significant decrease in body weight”.

For `Cl.O=C(c1ccc(Nc2ncc(F)c(-c3ccc4scnc4c3)n2)nc1)N1CCNCC1` [Example 20, (6-((4-(benzothiazole-5-yl)-5-fluoropyrimidine-2-yl)amino)pyridine-3-yl)(piperazine-1-yl)ketone hydrochloride], the IC50 in series [2] (read-out: IC50) was found to be 0.6 nM; in series [3] (Homo sapiens, DU-145, DU145 cells, 72 hours, CCK8), 3.25 ± 0.06 µM; in series [4] (Homo sapiens, 22Rv1 cells, 72 hours, CCK8) it was 2.55 ± 0.046 µM. Moreover, the “inhibition of proliferation of prostate cancer DU145 cell” value in series [3] (result in words) was “significantly inhibit”. For the same compound, the “inhibition of proliferation of prostate cancer 22Rv1 cell” value in series [4] (result in words) is listed as “significantly inhibit”. For the same compound, the “death of animals after day 14 of dosing” value in series [5] (gavage once, 1000, 2500, 5000 and 10000 mg/kg, day 14) was “no animals died”. Also, the “weight of main organs (heart, liver, spleen, lung, kidney) versus control group” value in series [5] (gavage once, 1000, 2500, 5000 and 10000 mg/kg, dissection after 14 days) is given as “no difference in the weight of main organs”. Further, in series [5] (gavage once, 1000, 2500, 5000 and 10000 mg/kg, within 12 hours after dosing), the abnormality after dosing result is reported as “no abnormality was observed”. For the same compound, the “death of animals within 24 hours of dosing” value in series [5] (gavage once, 1000, 2500, 5000 and 10000 mg/kg, within 24 hours) is on record as “No animals died”. In series [5] (gavage once, up to 10000 mg/kg), the “toxic or side effects (overall conclusion)” value is “no obvious toxic or side effects”. The figures for the “T/C(%)” value in series [1] (100 mg/kg once a day) and in series [1] (high dose 200 mg/kg once a day) were 50.9% and 34.4%, respectively. Further, the tumor inhibition rate was determined as 48.7% in series [1] (100 mg/kg once a day) and 65.3% in series [1] (high dose 200 mg/kg once a day). The “body weight of nude mice during dosing” value in series [1] is “no significant decrease in body weight”.

Consider `CCN1CCN(C(=O)c2ccc(Nc3nccc(-c4ccc5scnc5c4)n3)nc2)CC1` [Example 9, (6-((4-(benzothiazole-5-yl)pyrimidine-2-yl)amino)pyridine-3-yl)(4-ethylpiperazine-1-yl)ketone], for which the IC50 in series [2] (read-out: IC50) was 67 nM.

For the compound `Cc1cnc(Nc2ccc(C(=O)N3CCNCC3)cn2)nc1-c1ccc2scnc2c1` [Example 5, (6-((4-(benzothiazole-5-yl)-5-methylpyrimidine-2-yl)amino)pyridine-3-yl)(piperazine-1-yl)ketone hydrochloride], in series [2] (read-out: IC50), the IC50 amounted to 357 nM.

Take `CN(C)c1nc2ccc(-c3nc(Nc4ccc(C(=O)N5CCN(C(=O)C6CC6)CC5)cn4)ncc3F)cc2s1` [Example 36]: in series [2] (IC50 (nM)), the IC50 amounted to 16 nM.

As for `CN(C)c1nc2cc(-c3nc(Nc4ccc(C(=O)N5CCNCC5)nc4)ncc3F)ccc2s1` [Example 32, (5-((4-(2-(dimethylamino)benzothiazole-5-yl)-5-fluoropyrimidine-2-yl)amino)pyridine-2-yl)(piperazine-1-yl)ketone hydrochloride], the IC50 in series [2] (read-out: IC50) stood at 9 nM.

With `CCN1CCN(C(=O)c2ccc(Nc3ncc(C)c(-c4ccc5scnc5c4)n3)nc2)CC1` [Example 3, (6-((4-(benzothiazole-5-yl)-5-methylpyrimidine-2-yl)amino)pyridine-3-yl)(4-ethylpiperazine-1-yl)ketone], the IC50 in series [2] (read-out: IC50) worked out at 498 nM.

Source of the values: patent EP4631941A1 (Jiangsu Tasly Diyi Pharmaceutical Co., Ltd., priority 2022, dated 2024).
